This assay addresses human GlyT1c transporter (Homo sapiens (Human), UniProt P48067). The experiment in a line: Radioligand binding assay using recombinant CHO cell membranes expressing human GlyT1. As to conditions: human GlyT1c-expressing CHO cell membranes, read-out: radioligand binding Kiapp. From the text:
2. Radioligand binding assays using recombinant CHO cell membranes expressing human GlyT1: […]

Counter-ions that a name gives are not always drawn. Like-named read-outs stand apart in the source and are kept apart here. Some results are limits rather than exact numbers.

Sequence of human GlyT1c transporter (P48067 whole entry): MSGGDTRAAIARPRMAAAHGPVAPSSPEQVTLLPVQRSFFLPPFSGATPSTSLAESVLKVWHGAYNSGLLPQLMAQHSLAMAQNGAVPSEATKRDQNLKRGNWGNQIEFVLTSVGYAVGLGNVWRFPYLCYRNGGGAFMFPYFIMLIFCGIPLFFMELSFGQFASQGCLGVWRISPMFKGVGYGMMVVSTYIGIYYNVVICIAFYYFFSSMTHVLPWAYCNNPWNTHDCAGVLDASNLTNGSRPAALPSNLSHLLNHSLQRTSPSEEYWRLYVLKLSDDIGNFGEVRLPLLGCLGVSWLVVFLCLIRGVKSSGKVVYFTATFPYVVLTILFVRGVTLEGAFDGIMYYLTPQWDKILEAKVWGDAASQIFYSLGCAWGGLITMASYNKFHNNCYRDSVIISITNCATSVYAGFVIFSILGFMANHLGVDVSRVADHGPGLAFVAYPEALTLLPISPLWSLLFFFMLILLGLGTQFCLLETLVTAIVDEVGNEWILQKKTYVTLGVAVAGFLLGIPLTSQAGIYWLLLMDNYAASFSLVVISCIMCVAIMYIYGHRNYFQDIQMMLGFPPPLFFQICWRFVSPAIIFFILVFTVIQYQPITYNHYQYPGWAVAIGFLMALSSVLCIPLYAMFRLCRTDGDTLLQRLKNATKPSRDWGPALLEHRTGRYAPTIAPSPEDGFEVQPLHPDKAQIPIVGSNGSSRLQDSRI

On to `CNC1CCc2ccc(OCCNS(=O)(=O)CC3CC3)cc2C1Cc1cccc(F)c1` (single isomer, unassigned; enantiomer 1) [Example 240, Enantiomer 1 of 1-cyclopropyl-N-(2-{[8-(3-fluorobenzyl)-7-(methylamino)-5,6,7,8-tetrahydronaphthalen-2-yl]oxy}ethyl)methanesulfonamide hydrochloride], for which the Ki is at most 0.01 µM.

As for `CNC1CCc2ccc(OCCNS(=O)(=O)CC3CC3)cc2C1Cc1cc(F)cc(F)c1` (single isomer, unassigned; enantiomer 2) [Example 244, Enantiomer 2 of 1-cyclopropyl-N-(2-{[8-(3,5-difluorobenzyl)-7-(methylamino)-5,6,7,8-tetrahydronaphthalen-2-yl]oxy}ethylmethanesulfonamide hydrochloride], the Ki is at most 0.01 µM.

On to `CCCS(=O)(=O)NCCCc1ccc2c(c1)C(Cc1ccc(Cl)c(Cl)c1)C(N)CC2` (centres unmarked) [Example 203, N-{3-[7-Amino-8-(3,4-dichlorobenzyl)-5,6,7,8-tetrahydronaphthalen-2-yl]propyl}propane-1-sulfonamide hydrochloride], for which the Ki was at most 0.01 µM.

For the compound `O=S(=O)(CC1CC1)NCCOc1ccc2c(c1)C(Cc1cccc(F)c1)C(N1CCCC1)CC2` (centres unmarked) [Example 138, 1-Cyclopropyl-N-(2-{[8-(3-fluorobenzyl)-7-(pyrrolidin-1-yl)-5,6,7,8-tetrahydronaphthalen-2-yl]oxy}ethyl)methanesulfonamide hydrochloride], the Ki is at most 0.01 µM.

On to `CCNC1CCc2ccc(CCCNS(=O)(=O)CC3CC3)cc2C1Cc1ccc(F)c(F)c1` (centres unmarked) [Example 226, 1-Cyclopropyl-N-{3-[8-(3,4-difluorobenzyl)-7-(ethylamino)-5,6,7,8-tetrahydronaphthalen-2-yl]propyl}methanesulfonamide trifluoroacetate], for which the Ki was at most 0.1 µM.

`CCCS(=O)(=O)N1CC(c2ccc3c(c2)C(Cc2cccc(Cl)c2)C(N)CC3)C1` (centres unmarked) [Example 283, 1-(3-Chloro-benzyl)-7-[1-(propane-1-sulfonyl)-azetidin-3-yl]-1,2,3,4-tetrahydro-naphthalen-2-ylamine hydrochloride]: the Ki is at most 1 µM.

In the case of `CNC1CCc2ccc(CNS(=O)(=O)C3CCC3)cc2C1Cc1ccccc1` (centres unmarked) [Example 188, N-{[8-Benzyl-7-(methylamino)-5,6,7,8-tetrahydronaphthalen-2-yl]methyl}cyclobutanesulfonamide hydrochloride], the Ki is at most 0.1 µM.

On to `Cn1cnc(S(=O)(=O)NCCOc2ccc3c(c2)C(Cc2ccccc2)C(N2CCCC2)CC3)c1` (centres unmarked) [Example 116, N-(2-(8-Benzyl-7-(pyrrolidin-1-yl)-5,6,7,8-tetrahydronaphthalen-2-yloxy)ethyl)-1-methyl-1H-imidazole-4-sulfonamide hydrochloride], for which the Ki (hydrochloride) was at most 0.01 µM.

In the case of `CCCS(=O)(=O)N1CC(COc2ccc3c(c2)C(Cc2cccc(Cl)c2)C(N)CC3)C1` (centres unmarked) [Example 286, 1-(3-Chloro-benzyl)-7-[1-(propane-1-sulfonyl)-azetidin-3-ylmethoxy]-1,2,3,4-tetrahydronaphthalen-2-ylamine hydrochloride], the Ki was at most 10 µM.

Regarding `NC1CCc2ccc(OCCNS(=O)(=O)CCC3CC3)cc2C1Cc1ccc(Cl)c(Cl)c1` (centres unmarked) [Example 125, N-(2-{[7-Amino-8-(3,4-dichlorobenzyl)-5,6,7,8-tetrahydronaphthalen-2-yl]oxy}ethyl)-2-cyclopropylethanesulfonamide hydrochloride], the Ki is at most 1 µM.

With `Cn1ccc(S(=O)(=O)NCCOc2ccc3c(c2)C(Cc2ccccc2)C(N2CCC2)CC3)c1` (centres unmarked) [Example 268, N-(2-{[7-(Azetidin-1-yl)-8-benzyl-5,6,7,8-tetrahydronaphthalen-2-yl]oxy}ethyl)-1-methyl-1H-pyrrole-3-sulfonamide], the Ki was at most 0.01 µM.

On to `Cn1cnc(S(=O)(=O)NCCOc2ccc3c(c2)C(Cc2ccccc2)C(N2CCC2)CC3)c1` (centres unmarked) [Example 145, N-(2-{[7-(Azetidin-1-yl)-8-benzyl-5,6,7,8-tetrahydronaphthalen-2-yl]oxy}ethyl)-1-methyl-1H-imidazole-4-sulfonamide], for which the Ki is at most 0.01 µM.

Take `CN(CCOc1ccc2c(c1)C(Cc1ccccc1)C(N1CCC1)CC2)S(=O)(=O)c1cn(C)cn1` (centres unmarked) [Example 105, 1-Methyl-1H-imidazole-4-sulfonic acid [2-(7-azetidin-1-yl-8-benzyl-5,6,7,8-tetrahydronaphthalen-2-yloxy)-ethyl]-methyl-amide]: the Ki is at most 0.1 µM.

With `O=S(=O)(CC1CC1)NCCOc1ccc2c(c1)C(Cc1ccccc1)C(N1CCC1)CC2` (single isomer, unassigned; (+)) [Example 144, (+)-N-(2-(7-(azetidin-1-yl)-8-benzyl-5,6,7,8-tetrahydronaphthalen-2-yloxy)ethyl)-1-cyclopropylmethanesulfonamide succinate], the Ki (succinate) was at most 1 µM.

With `CCNC1CCc2ccc(CNS(=O)(=O)c3cn(C)cn3)cc2C1Cc1ccc(F)cc1` (centres unmarked) [Example 199, 1-Methyl-1H-imidazole-4-sulfonic acid [7-ethylamino-8-(4-fluoro-benzyl)-5,6,7,8-tetrahydro-naphthalen-2-ylmethyl]-amide hydrochloride], the Ki was at most 0.1 µM.

On to `CNC1CCc2ccc(OCCNS(=O)(=O)c3cn(C)cn3)cc2C1Cc1ccccc1Cl` (centres unmarked) [Example 303, 1-Methyl-1H-imidazole-4-sulfonic acid {2-[8-(2-chloro-benzyl)-7-methylamino-5,6,7,8-tetrahydro-naphthalen-2-yloxy]-ethyl}-amide hydrochloride], for which the Ki is at most 0.1 µM.

For `Cn1cnc(S(=O)(=O)NCCOc2ccc3c(c2)C(Cc2cccc(F)c2)C(N2CCC2)CC3)c1` (centres unmarked) [Example 141, N-(2-{[7-(Azetidin-1-yl)-8-(3-fluorobenzyl)-5,6,7,8-tetrahydronaphthalen-2-yl]oxy}ethyl)-1-methyl-1H-imidazole-4-sulfonamide hydrochloride], the Ki was at most 0.01 µM.

With `CCCS(=O)(=O)NCCCc1ccc2c(c1)C(Cc1ccc(F)cc1)C(NCC)CC2` (centres unmarked) [Example 220, N-{3-[7-(Ethylamino)-8-(4-fluorobenzyl)-5,6,7,8-tetrahydronaphthalen-2-yl]propyl}propane-1-sulfonamide hydrochloride], the Ki was at most 1 µM.

Take `CNC1CCc2ccc(OCCNS(=O)(=O)c3ccn(C)c3)cc2C1Cc1cc(F)cc(F)c1` (centres unmarked) [Example 246, N-(2-{[8-(3,5-Difluorobenzyl)-7-(methylamino)-5,6,7,8-tetrahydronaphthalen-2-yl]oxy}ethyl)-1-methyl-1H-pyrrole-3-sulfonamide hydrochloride]: the Ki is at most 0.01 µM.

With `CCOC(=O)NC1CCc2ccc(OCCN(C)S(=O)(=O)CC3CC3)cc2C1Cc1cccc(Cl)c1` (centres unmarked) [Example 290, {1-(3-Chloro-benzyl)-7-[2-(cyclopropylmethanesulfonyl-methyl-amino)-ethoxy]-1,2,3,4-tetrahydro-naphthalen-2-yl}-carbamic acid ethyl ester], the Ki was at most 10 µM.

Consider `CCCS(=O)(=O)NCCCc1ccc2c(c1)C(Cc1cccc(F)c1)C(N)CC2` (centres unmarked) [Example 209, N-{3-[7-Amino-8-(3-fluorobenzyl)-5,6,7,8-tetrahydronaphthalen-2-yl]propyl}propane-1-sulfonamide hydrochloride], for which the Ki is at most 0.1 µM.

As for `Cc1cccc(CC2c3cc(OCCNS(=O)(=O)c4cn(C)cn4)ccc3CCC2N2CCCC2)c1` (centres unmarked) [Example 163, 1-Methyl-N-(2-{[8-(3-methylbenzyl)-7-(pyrrolidin-1-yl)-5,6,7,8-tetrahydronaphthalen-2-yl]oxy}ethyl)-1H-imidazole-4-sulfonamide], the Ki is at most 0.01 µM.

As to `CCN(CCOc1ccc2c(c1)C(Cc1ccccc1)C(N)CC2)S(=O)(=O)c1cnn(C)c1` (centres unmarked) [Example 113, N-(2-(7-Amino-8-benzyl-5,6,7,8-tetrahydronaphthalen-2-yloxy)ethyl)-N-ethyl-1-methyl-1H-pyrazole-4-sulfonamide hydrochloride], the Ki was at most 0.1 µM.

`CCCS(=O)(=O)NCCCc1ccc2c(c1)C(Cc1cccc(Cl)c1)C(N)CC2` (centres unmarked) [Example 297, Propane-1-sulfonic acid {3-[7-amino-8-(3-chloro-benzyl)-5,6,7,8-tetrahydro-naphthalen-2-yl]-propyl}-amide hydrochloride]: the Ki was at most 0.1 µM.

Consider `CCCS(=O)(=O)N(C)Cc1ccc2c(c1)C(Cc1ccccc1)C(NC)CC2` (centres unmarked) [Example 275, N-{[8-Benzyl-7-(methylamino)-5,6,7,8-tetrahydronaphthalen-2-yl]methyl}-N-methylpropane-1-sulfonamide trifluoroacetate], for which the Ki was at most 0.1 µM.

On to `CCCS(=O)(=O)NCCCc1ccc2c(c1)C(Cc1ccccc1Cl)C(NCC)CC2` (centres unmarked) [Example 222, Propane-1-sulfonic acid {3-[8-(2-chloro-benzyl)-7-ethylamino-5,6,7,8-tetrahydronaphthalen-2-yl]-propyl}-amide hydrochloride], for which the Ki was at most 1 µM.

For the compound `Cn1cnc(S(=O)(=O)NCCOc2ccc3c(c2)C(Cc2ccccc2)C(N2CCC(F)C2)CC3)c1` (centres unmarked) [Example 152, N-[2-({8-Benzyl-7-[3-fluoropyrrolidin-1-yl]-5,6,7,8-tetrahydronaphthalen-2-yl}oxy)ethyl]-1-methyl-1H-imidazole-4-sulfonamide hydrochloride], the Ki is at most 0.01 µM.

With `Cc1nc(S(=O)(=O)NCCOc2ccc3c(c2)C(Cc2cccc(Cl)c2)C(N)CC3)cn1C` (centres unmarked) [Example 316, 1,2-Dimethyl-1H-imidazole-4-sulfonic acid {2-[7-amino-8-(3-chloro-benzyl)-5,6,7,8-tetrahydro-naphthalen-2-yloxy]-ethyl}-amide hydrochloride], the Ki was at most 1 µM.

As for `CCOC(=O)NC1CCc2ccc(OCCNS(=O)(=O)c3cn(C)cn3)cc2C1Cc1ccccc1Cl` (centres unmarked) [Example 298, {1-(2-Chloro-benzyl)-7-[2-(1-methyl-1H-imidazole-4-sulfonylamino)-ethoxy]-1,2,3,4-tetrahydro-naphthalen-2-yl}-carbamic acid ethyl ester], the Ki is at most 10 µM.

(Values after US9067871B2, “Aminotetraline derivatives, pharmaceutical compositions containing them, and their use in therapy” (ABBVIE DEUTSCHLAND GMBH & CO KG, priority 2009, dated 2015).)
